Test results: ChEMBL document CHEMBL4020796, “Evaluation of guggulsterone derivatives as novel kidney cell protective agents against cisplatin-induced nephrotoxicity” (2017)
The source made the active and inactive calls. The rule behind the calls is not given here.

Assays:
LLC-PK1 [1] = assay: Renoprotective activity in pig LLC-PK1 cells assessed as inhibition of cisplatin-induced oxidative stress by measuring cell viability up to 250 uM after 24 hrs by MTT assay; format: functional, cell-based; settings: Sus scrofa
LLC-PK1 [2] = assay: Renoprotective activity in pig LLC-PK1 cells assessed as inhibition of cisplatin-induced cytotoxicity by measuring cell viability at 10 to 50 uM by phase contrast microscopic method; format: functional, cell-based; settings: Sus scrofa
Sus scrofa [3] = species: Sus scrofa; assay: Inhibition of cisplatin-induced MAPK p38 phosphorylation in pig LLC-PK1 cells at 10 to 50 uM after 24 hrs by Western blot method; format: cell-based
LLC-PK1 [4] = assay: Renoprotective activity in pig LLC-PK1 cells assessed as inhibition of cisplatin-induced cell death by measuring cell viability at 50 uM by flow cytometry; format: functional, cell-based; settings: Sus scrofa
LLC-PK1 [5] = assay: Renoprotective activity in pig LLC-PK1 cells assessed as inhibition of cisplatin-induced cleaved caspase-3 levels at 10 to 50 uM after 24 hrs by Western blot method; format: functional, cell-based; settings: Sus scrofa
LLC-PK1 [6] = assay: Renoprotective activity in pig LLC-PK1 cells assessed as inhibition of cisplatin-induced oxidative stress by measuring cell viability at 25 uM after 24 hrs by MTT assay relative to control; format: functional, Sus scrofa
Sus scrofa [7] = species: Sus scrofa; assay: Inhibition of cisplatin-induced MAPK JNK phosphorylation in pig LLC-PK1 cells at 10 to 50 uM after 24 hrs by Western blot method; format: cell-based

In the case of `C/C=C1/[C@@H](n2cc(-c3ccc(C)cc3)nn2)C[C@H]2[C@@H]3CCC4=CC(=O)CC[C@]4(C)[C@H]3CC[C@]12C`, the inhibition (LLC-PK1 [1]) is reported as “Active”.
For `C/C=C1/[C@@H](n2cc(-c3ccc(F)cc3)nn2)C[C@H]2[C@@H]3CCC4=CC(=O)CC[C@]4(C)[C@H]3CC[C@]12C`, the inhibition (LLC-PK1 [1]) was “Active”.
`C/C=C1/[C@@H](n2cc(CO)nn2)C[C@H]2[C@@H]3CCC4=CC(=O)CC[C@]4(C)[C@H]3CC[C@]12C` was tested, and the inhibition (LLC-PK1 [2]) was “Active”, the inhibition (Sus scrofa [3]) was “Active” and the inhibition (LLC-PK1 [4]) was “Active”. For the same compound, the inhibition (LLC-PK1 [5]) was “Active”, the Activity (LLC-PK1 [6]) was >90% and the inhibition (Sus scrofa [7]) was “Active”.
`C/C=C1/[C@@H](n2cc(CCCC)nn2)C[C@H]2[C@@H]3CCC4=CC(=O)CC[C@]4(C)[C@H]3CC[C@]12C` was tested, and the inhibition (LLC-PK1 [1]) was “inactive”.
`C/C=C1/[C@@H](n2cc(CCCC#N)nn2)C[C@H]2[C@@H]3CCC4=CC(=O)CC[C@]4(C)[C@H]3CC[C@]12C` was tested, and the inhibition (LLC-PK1 [1]) was “inactive”.
`C/C=C1/[C@@H](n2cc(-c3ccccc3)nn2)C[C@H]2[C@@H]3CCC4=CC(=O)CC[C@]4(C)[C@H]3CC[C@]12C` was tested, and the inhibition (LLC-PK1 [1]) was “Active”.
